The source made the active and inactive calls. No cut-off for these calls is given here.
Columns and labels:
MGC-803 [1] = assay: Antiproliferative activity against human MGC-803 cells assessed as inhibition of cell growth at 10 uM measured after 72 hrs by SRB assay relative to control; format: functional
SGC-7901 = assay: Antiproliferative activity against human SGC-7901 cells assessed as inhibition of cell growth at measured after 72 hrs by SRB assay; format: functional
HGC-27 = assay: Antiproliferative activity against human HGC-27 cells assessed as inhibition of cell growth at measured after 72 hrs by SRB assay; format: functional
BGC-823 = assay: Antiproliferative activity against human BGC-823 cells assessed as inhibition of cell growth at measured after 72 hrs by SRB assay; format: functional
GES1 = assay: Cytotoxicity against human GES1 cells assessed as inhibition of cell growth at measured after 72 hrs by SRB assay; format: cell-based; conditions: ges1, 72 h
EJ = assay: Antiproliferative activity against human EJ cells assessed as inhibition of cell growth at measured after 72 hrs by SRB assay; format: functional
MGC-803 [2] = assay: Antiproliferative activity against human MGC-803 cells assessed as inhibition of cell growth at measured after 72 hrs by SRB assay; format: functional
MKN-45 = assay: Antiproliferative activity against human MKN-45 cells assessed as inhibition of cell growth at measured after 72 hrs by SRB assay; format: functional
A549 = assay: Antiproliferative activity against human A549 cells assessed as inhibition of cell growth at measured after 72 hrs by SRB assay; format: functional

| Compound | inhibition at 10 µM (MGC-803 [1]) | also measured |
| --- | --- | --- |
| O=C(/C=C/c1cccc(Br)n1)c1ccc(Nc2cc(-c3ccccc3)nc3nc(SCc4ccccc4)nn23)cc1 | 38.3% |  |
| CCc1cc(Nc2ccc(C(=O)/C=C/c3cccc(Br)n3)cc2)n2nc(SCc3ccccc3)nc2n1 | 63% |  |
| Cc1cc(Nc2ccc(C(=O)/C=C/c3cccc(Br)n3)cc2)n2nc(SCc3ccc(Br)cc3)nc2n1 | 96.3% |  |
| Cc1cc(Nc2cc(-c3ccccc3)[nH]n2)n2nc(SCc3nc4ccccc4[nH]3)nc2n1 | 78.4% |  |
| Cc1cc(Nc2ccc(C(=O)/C=C/c3ccc(Br)cn3)cc2)n2nc(SCc3nc4ccccc4[nH]3)nc2n1 | 96.8% | GI50 (SGC-7901): 640 nM; GI50 (HGC-27): 640 nM; GI50 (BGC-823): 640 nM; Activity (GES1): Non-Toxic; GI50 (EJ): inactive; GI50 (MGC-803 [2]): 640 nM; GI50 (MKN-45): 640 nM; GI50 (A549): inactive |
| Cc1cc(Nc2ccc(C(=O)/C=C/c3cccc(Br)n3)cc2)n2nc(SCc3ccc([N+](=O)[O-])cc3)nc2n1 | 91.6% |  |
| Cc1cc(Nc2ccc(C(=O)/C=C/c3cccc(Br)n3)cc2)n2nc(SCc3ccc(Cl)cc3)nc2n1 | 90.2% |  |
| Cc1cc(Nc2ccc(C(=O)/C=C/c3cccc(Br)n3)cc2)n2nc(SCCCc3ccccc3)nc2n1 | 76.7% |  |
| Cc1cc(Nc2ccc(N3CCN(C)CC3)cc2)n2nc(SCc3nc4ccccc4[nH]3)nc2n1 | 78.1% |  |
| Cc1cc(Nc2ccc(C(=O)/C=C/c3cccc(Br)n3)cc2)n2nc(SCc3ccccc3)nc2n1 | 90.2% |  |
| Cc1cc(Nc2ccc(C(=O)/C=C/c3cccc(Br)n3)cc2)n2nc(SCc3ccc(C(F)(F)F)cc3)nc2n1 | 96.6% |  |
| Cc1cc(Nc2ccc(C(=O)/C=C/c3cccc(Br)n3)cc2)n2nc(SCc3ccccc3[N+](=O)[O-])nc2n1 | 92.3% |  |
| C#CCSc1nc2nc(-c3ccccc3)cc(Nc3ccc(C(=O)/C=C/c4cccc(Br)n4)cc3)n2n1 | 56.3% |  |
| Cc1cc(Nc2ccc(C(=O)/C=C/c3cccc(Br)n3)cc2)n2nc(SCc3ccc(F)cc3)nc2n1 | 93.3% |  |
| O=C(/C=C/c1cccc(Br)n1)c1ccc(Nc2c3c(nc4ncnn24)CCC3)cc1 | 49.9% |  |
| Cc1cc(Nc2ccc(C(=O)/C=C/c3cccc(Br)n3)cc2)n2ncnc2n1 | 58.4% |  |
| Cc1cc(Nc2ccccc2)n2nc(SCc3nc4ccccc4[nH]3)nc2n1 | 22.4% |  |
| Cc1cc(Nc2ccc(C(=O)/C=C/c3ccccc3)cc2)n2nc(SCc3nc4ccccc4[nH]3)nc2n1 | 94.5% |  |
| Cc1nc2nc(SCc3ccc(Cl)cc3)nn2c(Nc2ccc(C(=O)/C=C/c3cccc(Br)n3)cc2)c1C | 72.5% |  |
| C#CCSc1nc2nc(C)cc(Nc3ccc(C(=O)/C=C/c4cccc(Br)n4)cc3)n2n1 | 94.4% |  |
| O=c1[nH]cc(F)c(=O)[nH]1 [FLUOROURACIL] |  | GI50 (SGC-7901): Active; GI50 (HGC-27): Active; GI50 (BGC-823): Active; Activity (GES1): Toxic; GI50 (EJ): Active; GI50 (MGC-803 [2]): Active; GI50 (MKN-45): Active; GI50 (A549): Active |
